The values below come from US20180064710A1, “ANTIFUNGAL TREATMENT OF PSORIASIS” (Gerbe Labs Inc., priority 2016, published 2018).

What all share (assay type): cell-based
Assay [1] has as its system S. aureus, a gram negative bacteria. Nature of the assay: Culture sensitivity, Patient 7 bacterial isolate. The following applies: Patient 7 culture. An excerpt:
(§1) The patient underwent the standard workup for CRS, sleep disorder, and nasal obstruction, plus our diagnostic skin test and sinus CT scan.

Assay [2] concerns Aspergillus fumigatus + Candida albicans co-culture. Nature of the assay: Broth microdilution MIC assay, co-culture of spores 1:1. As for the experimental part:
Broth Microdilution Minimal Inhibitory Concentration (MIC) assays were performed to obtain the MIC values for Itraconazole and Ketoconazole with an antibiotic (Vancomycin or Tobramycin or Amikacin) against the two fungal strains.
The strains were maintained as a frozen glycerol stocks at −80° C. The fungal strains were prepared by thawing a glycerol stock, streaking and growing onto Sabouraud's Dextrose Agar (SDA) plates, overnight at 35±2° C. in aerobic conditions and used for the assay.
The completely synthetic medium RPMI-1640 (with glutamine, without bicarbonate, and with phenol red as a pH indicator) was buffered with 0.165 mol/L MOPS (3-[N-morpholino] propanesulfonic acid) buffer was used as the growth medium for the fungal strains. Overnight cultures of the fungal strains were grown on Difco™ Sabouraud's Dextrose Agar (SDA) plates at 35° C. To induce conidium and sporangiospore formation, the culture plates were transferred to incubator and grown for 5-7 days 30° C. or until good sporulation was obtained. Approximately, 10 mL of 0.85% saline containing 0.01% of Tween 80 was used to poured on to the agar plate containing conidia or sporangiospores and hyphal fragments. The suspension containing conidia or sporangiospores and hyphal fragments was aspirated and transferred to a sterile tube. This mixture was filtered to separate the spores from the vegetative cells of the fungi. The supernatant containing only fungal spores was used for all the assays. Fungal spore inoculum was prepared in RPMI-1640 (with glutamine, without bicarbonate, and with phenol red as a pH indicator) was buffered with 0.165 mol/L MOPS (3-[N-morpholino] propanesulfonic acid) buffer to a final density of 10^6 CFU/mL using a hemocytometer.
Each MIC assay included 11 2-fold serial dilutions of the antifungal agents. Test concentrations for the test articles were tested at the following concentrations: 64 μg/mL, 32 μg/mL, 16 μg/mL, 8 μg/mL, 4 μg/mL, 2 μg/mL, 1 μg/mL, 0.5 μg/mL, 0.25 μg/mL, 0.125 μg/mL, and 0.0625 μg/mL. Broth microdilution assays were performed according to the procedures detailed in CLSI document M38-A2 (CLSI, 2008). Briefly, 2× stock solutions of test articles were prepared at 128 μg/mL. A two-fold serial dilution of the stock solution were performed. Diluted stock solutions of the fungal spores were adjusted (to be equivalent to 10^6 CFU/mL). 1× final concentration of the antifungals was obtained when they were combined with the fungal spore broth in the microtiter plate. Plates were incubated for 3-5 days at 35±2° C. in an ambient air incubator. MIC values recorded are the minimum concentration of the test articles that inhibits growth as observed by unaided eye. The MIC values was expressed in μg/mL. The assay was carried out in duplicates.
(In general: Broth dilution looks for growth in wells or tubes with falling amounts of substance.)

In assay [3] the test system is Candida albicans. Nature of the assay: Culture sensitivity, Patient 7 fungal isolate. The note with it: Patient 7 culture.
Text: as §1

Setting [4] is: A. fumigatus + C. albicans co-culture, repeated MIC study (Table 4), agent alone, read-out: MIC.

Where two headings read alike, the source gives them in different places.

Regarding `NC[C@H]1O[C@H](O[C@H]2[C@H](O)[C@@H](O[C@H]3O[C@H](CO)[C@@H](O)[C@H](N)[C@H]3O)[C@H](N)C[C@@H]2N)[C@H](N)C[C@@H]1O` [tobramycin], the “Sensitivity of cultured bacteria” value in assay [1] is “sensitive”.

A word on the MIC: it is the lowest concentration that inhibits growth of the organism. As to `CCC(C)n1ncn(-c2ccc(N3CCN(c4ccc(OCC5COC(Cn6cncn6)(c6ccc(Cl)cc6Cl)O5)cc4)CC3)cc2)c1=O` (stereo not drawn) [Itraconazole], the minimum inhibitory concentration (MIC) in assay [2] (A. fumigatus + C. albicans co-culture 1:1, first study (Table 3), read-out: MIC) was determined as 0.5 µg/mL; in assay [2] (A. fumigatus + C. albicans co-culture, repeated MIC study (Table 4), agent alone, listed as Itraconazone), 1 µg/mL; in assay [2] (setting [4]) it was 1 µg/mL.

As to `CC(=O)N1CCN(c2ccc(OCC3COC(Cn4ccnc4)(c4ccc(Cl)cc4Cl)O3)cc2)CC1` (stereo not drawn) [Ketoconazole], in assay [2] (setting [4]), the MIC stood at 8 µg/mL. Also, in assay [3], the “Sensitivity of cultured Candida albicans” value is reported as “sensitive”.
